For 90 compounds, IC50 results are on record in PubChem BioAssay AID489035 (Sanford-Burnham Center for Chemical Genomics, 2010).

Active and inactive are the calls of the source. No rule for the calls is given here.

This assay concerns Jurkat NF-kB reporter, TCR-induced, luciferase luminescence. As to the kind of experiment: T-cell NF-kB luciferase reporter inhibition – Jurkat cells, luminescence, dose response (AID 489035). In general terms: A reporter such as luciferase makes a cellular process visible.
As a reminder, the IC50 is the concentration that inhibits the measured activity by half. As to `CC[C@]1(O)CC2CN(CCc3c([nH]c4ccccc34)[C@@](C(=O)OC)(c3cc4c(cc3OC)N(C=O)[C@H]3[C@@](O)(C(=O)OC)[C@H](OC(C)=O)[C@]5(CC)C=CCN6CC[C@]43[C@@H]65)C2)C1` (stereo not given in full), the IC50 is > 80 µM (inactive). As to `COc1ccc(C(C(=O)NC2CCCCC2)N(C(=O)CCl)c2ccc(C)cc2)cc1` (stereo not given), the 50% inhibitory concentration (IC50) was 0.33 µM. With `O=C(/C=C/c1cccc([N+](=O)[O-])c1)n1cnc2ccccc21` the figure was 5.79 µM; with `O=C(c1ccc(Cl)cc1)c1cc([N+](=O)[O-])ccc1N1CCOCC1`, > 80 µM (inactive). With `COc1cc(NC(=O)N2CCNC2=O)cc(C(=O)Nc2cccc(C(F)(F)F)c2)c1` the figure was > 80 µM (inactive).

As to `COC(=O)c1[nH]c2ccc(F)cc2c1NS(=O)(=O)c1ccc(OC)cc1`, the IC50 was > 80 µM (inactive). As for `Cc1nc2c(=O)n(C)c(=O)nc-2n(C)n1`, the IC50 was 0.47 µM. With `COc1ccc(-[n+]2c(-c3ccccc3)cc(-c3ccc(C)cc3)cc2-c2ccccc2)cc1` the figure was 4.95 µM. With `Cn1c(SC2=CS(=O)(=O)c3ccccc32)nc2ccccc21` the figure was 1.46 µM; with `CCc1ccc(/C=N/NC(=O)c2cc(C3CC3)nc3ccccc23)s1`, 20 µM (inactive). With `CCCc1cc(C(=O)Nc2cc(C)ccc2O)no1` the figure was > 80 µM (inactive); with `CCN(CC)c1ccc(-c2nn3c(-c4n[nH]c5c4CCC5)nnc3s2)cc1`, 47.1 µM (inactive); with `CC[C@@]1(O)C(=O)OCc2c1cc1n(c2=O)Cc2cc3c(N)cccc3nc2-1`, less than 0.16 µM. Take `CCCOc1ccc(/C=N/Nc2cc(N3CCOCC3)ncn2)c(O)c1`: the IC50 was 10 µM.

For the compound `COc1ccc2c(C)nc(Nc3nc(-c4ccccc4)cc(=O)[nH]3)nc2c1`, the IC50 is > 80 µM (inactive). With `Cc1ccc(/C=N/NC(=O)c2c(C)nc3ccc(Br)cn23)cc1`, the IC50 is > 80 µM (inactive). In the case of `CCOC(=O)C(C)Oc1cccc2c(=O)n(CC(=O)NCc3ccco3)ccc12` (stereo not given), the IC50 is > 80 µM (inactive). Turning to `CCOc1ccc(S(=O)(=O)NCc2ccccn2)cc1NC(=O)c1ccccc1F`, the IC50 is > 80 µM (inactive). In the case of `CCN1/C(=C/c2ccc3cc(C)ccc3[n+]2CC)Sc2ccc3sccc3c21` it was 3.1 µM; in that of `O=S(=O)(Nc1cccc2ncccc12)c1cccs1`, 0.89 µM; in that of `Cc1ccc2nc(SCC(=O)Nc3cc(C(F)(F)F)ccc3N3CCOCC3)[nH]c2c1`, > 80 µM (inactive).

As to `O=C(Nc1nc(-c2ccccn2)cs1)c1ccc(Cl)s1`, the IC50 is 2.64 µM.

With `CC1CCN(c2c(NCc3ccc(C(=O)N4CCc5ccccc54)cc3)c(=O)c2=O)CC1`, the IC50 is > 80 µM (inactive). As for `CC(C)(C)c1ccc(C(=O)Nc2ccc(Oc3cccnc3)nc2)cc1`, the IC50 is > 80 µM (inactive). In the case of `Cc1ccc(C(=O)O/N=C(\N)c2ccccn2)c(Cl)c1` it was 1.11 µM; in that of `CCc1ccc(S(=O)(=O)/N=C2\C=C(Nc3ccc(O)cc3)C(=O)c3ccccc32)cc1`, 2.58 µM; in that of `CCCCCCCCCCn1c2c(c(=N)c3c1CCC3)CCC2`, 5.17 µM. With `COc1cc2c(c(OC)c1OC)-c1ccc(OC)c(=O)cc1[C@@H](NC(C)=O)CC2` the figure was > 80 µM (inactive); with `CCc1cc2c(=O)nc3n(c2s1)Cc1ccccc1/C3=C(/O)c1cccc([N+](=O)[O-])c1`, > 80 µM (inactive). With `COc1ccc(-n2cc(-c3ccc(C)cc3)[n+]3c2SCC3)cc1` the figure was > 80 µM (inactive); with `O=C(NC(Nc1nc2ccc([N+](=O)[O-])cc2s1)(C(F)(F)F)C(F)(F)F)c1ccccc1`, > 80 µM (inactive); with `CC1=Nc2ccccc2/C1=C\c1sc(Nc2ccc(C)cc2)nc1O`, > 80 µM (inactive). `CCOC(=O)c1ccccc1NC(=O)Cn1c(-c2nonc2N)nc2ccccc21`: the IC50 is > 80 µM (inactive). With `c1ccc(-c2cccc(-c3ccccn3)n2)nc1` the figure was 1.61 µM. As to `COC(=O)Cc1[nH]n(-c2nc3ccccc3s2)c(=O)c1C(C)=Nc1ccc(OC)cc1`, the 50% inhibitory concentration (IC50) is 6.49 µM. Regarding `CCOCCOC(=O)c1[nH]c2c(c1C)C(=O)CC(c1ccccc1)C2` (stereo not given), the IC50 was > 80 µM (inactive). For `CC(C)CCOc1cccc(OCC(=O)Nc2ccncc2)c1`, the IC50 is > 80 µM (inactive). Take `CC1Cc2cc(-c3csc(NC(=O)Cc4cccs4)n3)ccc2N1S(C)(=O)=O` (stereo not given): the 50% inhibitory concentration (IC50) was 5.4 µM. `COc1ccc(C(=O)NNC(=O)c2ccccn2)cc1`: the IC50 is 1.93 µM. `Cc1ccc(C(=O)c2cc([N+](=O)[O-])ccc2N2CCCCC2)cc1`: the IC50 is > 80 µM (inactive). With `CCc1c(C)nc2ncnn2c1NCCc1ccc(OC)cc1`, the IC50 is > 80 µM (inactive). On to `COc1cccc(/C=N/Nc2ncnc3c2ncn3Cc2ccccc2)c1O`, for which the IC50 was > 80 µM (inactive).

As for `Cc1ccc(N2C(=O)c3cccc4c(N)ccc(c34)C2=O)c2cccnc12`, the 50% inhibitory concentration (IC50) was less than 0.16 µM.

Consider `C[C@]12CC[C@H]3[C@@H](CC[C@]4(O)C[C@@H](O)CC[C@]34C=O)[C@@]1(O)CC[C@@H]2C1=CC(=O)OC1`, for which the IC50 is 68.9 µM (inactive). For `COc1cccc(-c2cc(C(=O)Nc3cc(C)n(Cc4ccc(Cl)cc4)n3)no2)c1`, the IC50 was > 80 µM (inactive). Regarding `CC(=O)N1c2ccc(S(=O)(=O)N3CCC(C(=O)Nc4cccc(C)n4)CC3)cc2CC1C` (stereo not given), the IC50 was > 80 µM (inactive). Regarding `CC(=O)N(C)C1=C(N2CCOCC2)C(=O)c2ccccc2C1=O`, the 50% inhibitory concentration (IC50) was 9.87 µM. In the case of `Cc1cc(C)c2nc(C)cc(N/N=C/c3ccc(O)cc3)c2c1` it was 2.9 µM; in that of `CCO[C@@H]1OC(C(=O)NCc2nc3ccccc3[nH]2)=C[C@H](C(C)(C)C)[C@H]1CCCO`, > 80 µM (inactive); in that of `CC1(C)Cc2nc3sc4c(=O)n(CC(=O)NCc5ccccc5)cnc4c3cc2CO1`, > 80 µM (inactive). With `COc1ccccc1N1CCN(C(=O)C2c3ccccc3Oc3ccccc32)CC1` the figure was 57.2 µM (inactive); with `COc1ccc(CS(=O)/C(Cl)=C(/Cl)C(=O)Nc2ccc(OC)nc2)cc1` (stereo not given), 0.54 µM. With `CCCCCc1ccc(OCCCC[n+]2ccc(C)cc2)c(CCCCC)c1`, the half-inhibitory concentration (IC50) was 8.23 µM. In the case of `COc1ccc(/C=N/Nc2cc(C)nc3ccc(OC)cc23)c(OC)c1` it was 2.4 µM; in that of `Cc1cccc(N2CCN(C(=O)c3ccc4[nH]c(C)c(C)c4c3)CC2)c1C`, > 80 µM (inactive).

Turning to `C=CC[C@@H](CC/C=C/C=C/CC/C=C\[C@@H]1CSC([C@@H]2C[C@@H]2C)=N1)OC`, the IC50 is 50.8 µM (inactive). With `Cc1ccc(C(=O)O/N=C(\N)c2ccccn2)c(C)c1` the figure was 0.42 µM. In the case of `Cc1nn(-c2ccccc2Cl)c(Cl)c1/C=N/Nc1nc2ccccc2s1` it was less than 0.16 µM. In the case of `Cc1ccccc1NS(=O)(=O)c1ccc(N2CCCC2=O)cc1` it was 71.8 µM (inactive); in that of `CN1/C(=C\C(=O)C[n+]2ccc3ccccc3c2)C(C)(C)c2ccccc21`, 38 µM (inactive); in that of `COc1ccc(-n2nnnc2-c2cccc(OC)c2)cc1`, > 80 µM (inactive). Turning to `Cc1c(C)c2cccnc2c2ncccc12`, the IC50 was 2.02 µM. With `CCCC(=O)Nc1nc2ccc(NC(=O)c3c(F)c(F)c(OC)c(F)c3F)cc2s1` the figure was 11.5 µM; with `Cc1cccc(N2CCN(C(=O)c3c(-c4ccccc4)noc3C)CC2)c1C`, > 80 µM (inactive).

As for `COc1ccc(/C=C2/C(=O)OCc3cc(OC)c(OC)cc32)cc1`, the IC50 is > 80 µM (inactive). As for `CC(C)Oc1ccccc1C1CC(=O)Nc2cc3c(cc21)OCO3` (stereo not given), the IC50 is > 80 µM (inactive). As to `CCCCCN1C=CC(=C2C(=O)c3ccccc3C2=O)C=C1`, the IC50 is 0.37 µM. Consider `COc1cccc(/C=N/NC(=O)c2[nH]nc3c2CCc2ccccc2-3)c1O`, for which the IC50 was 59.5 µM (inactive). With `Cc1cccc(N=Nc2ccc(O)c3ncccc23)c1` the figure was 6.14 µM; with `CCCN1C=CC(=C2C(=O)c3ccccc3C2=O)C=C1`, 0.52 µM.

`O=S1(=O)C=C(Sc2nc3ccccc3s2)c2ccccc21`: the IC50 is 0.26 µM. In the case of `O=c1cc(-c2ccccc2)[nH]c2ccccc12` it was > 80 µM (inactive). With `O=[N+]([O-])c1ccc(Sc2ccc(Cl)c(Cl)c2)nc1` the figure was 2.99 µM; with `Cc1ccc(NS(=O)(=O)c2ccc(-c3cnc(C4CC4)o3)cc2)c(C)c1`, 14.8 µM.

`CC(Nc1ncnc2ccccc12)c1ccccc1` (stereo not given): the IC50 was > 80 µM (inactive). For the compound `Cc1ccc2nc(-c3ccc4c(c3)OCCO4)cn2c1`, the half-inhibitory concentration (IC50) is 1.01 µM.

As for `CN(C)S(=O)(=O)c1ccc(Nc2nc(C3CC3)nc3c2nnn3Cc2ccccc2Cl)cc1`, the IC50 is > 80 µM (inactive). In the case of `c1ccc(-c2noc(-c3ccc4ccccc4c3)n2)nc1` it was 0.46 µM. In the case of `CCCSc1nnc(Sc2nnnn2-c2ccccc2)s1` it was 2.09 µM; in that of `CCCCS(=O)(=O)/C=C\C=C/S(=O)(=O)CCCC`, 0.72 µM; in that of `CCCCCCCCCn1c2c(c(=N)c3c1CCC3)CCC2`, 7.67 µM. With `CCOc1ccccc1NC(=O)Cn1nnc(C(=O)NCc2cccs2)c1N` the figure was > 80 µM (inactive); with `CC(C)n1c(CN(C)Cc2ccccc2)nc2c1c(=O)n(C)c(=O)n2C`, > 80 µM (inactive).

Consider `Cc1ccc(C(=O)Nc2cccc(C(=O)O)c2)cc1`, for which the IC50 was 3.03 µM. With `CN[C@H]1CCc2cc(OC)c(OC)c(OC)c2-c2ccc(OC)c(=O)cc21` the figure was > 80 µM (inactive). As for `COc1ccc(CC(=O)Nc2cccc(-c3nnc(-c4cccc(C)c4)o3)c2)cc1OC`, the IC50 was 47.6 µM (inactive).

Regarding `CCOC(=O)CC1CCCCN1C(=O)c1cc(COc2cccc3cnccc23)on1` (stereo not given), the IC50 was 6.39 µM. With `C[C@]12CC[C@H](O)C[C@H]1CC[C@@H]1[C@@H]2C[C@@H](O)[C@]2(C)[C@@H](C3=CC(=O)OC3)CC[C@]12O` the figure was 65.7 µM (inactive); with `COc1ccc(CNC(=O)c2c(C)oc3c2C(=O)c2ccccc2C3=O)cc1`, 8.08 µM. Consider `CCOc1ccc2c(c1)OC(c1ccc(C)cc1)(C(F)(F)F)NC2=O` (stereo not given), for which the IC50 is > 80 µM (inactive).
